Drawing on PubChem BioAssay AID2060505 (Molecular Pharmacology Branch, DTP, NCI, 2025), this text covers IC50 and viability, T/C for 6 compounds.

The test system of the assay is 633275-114-R-J1-PDC complex spheroids, viability. Description: Anticancer human tumor 633275-114-R-J1-PDC patient-derived endometrial adenocarcinoma cell line growth inhibition [GQUAD]. To be noted: for viability, T/C: stronger effect = lower value. An excerpt:
DNA G-quadruplex Stabilizer Agents in Combinations in Complex Spheroids
A high-throughput screen of multi-cell type tumor spheroids was designed to identify active combinations of DNA G-quadruplex stabilizer agents and targeted small molecules. Complex spheroids include a stromal component modeled by human endothelial cells (HUVEC) and fibroblasts modeled by human mesenchymal stem cells (MSCs). The concentration ranges selected for each drug and investigational agent were based upon clinically achievable concentrations if the clinical Cmax of the agent was known.
Compounds. The drugs and investigational agents: pidnarulex (CX-5461; NSC782164), APTO-253 (NSC789042), BRACO-19 (NSC847499), peposertib (NSC802822), ceralasertib (NSC780249), elimusertib (NSC800525), camonsertib (NSC841442), AZD-1390 (NSC803789), olaparib (NSC753686), talazoparib (NSC767125), ART-558 (NSC835418), sotorasib (NSC818433), MRTX-1133 (NSC836407), SN-38 (NSC673596), topotecan (NSC609699), etoposide (NSC141540), doxorubicin (NSC123127), gemcitabine (NSC613327), 5-fluorouracil (NSC19893), paclitaxel (NSC125973), vemurafenib (NSC761431), panobinostat (NSC761190), R-306465 (JNJ-16241199; NSC773264), adavosertib (NSC754352), TP-3654 (NSC805149), carboplatin (NSC241240), KSQ-4279 (NSC840948), and staurosporine (NSC755774) were obtained from the National Cancer Institute (NCI) Developmental Therapeutics Program Chemical Repository (34). The FDA-approved anticancer drug set is available from the NCI Developmental Therapeutics Program. […] The stock solutions were prepared in dimethyl sulfoxide (DMSO, Sigma-Aldrich, St. Louis, MO, cat. D2650) at 800-fold the tested concentration and stored at -70 degrees C prior to their use. All drugs and investigational agents were tested over a range starting from a high concentration at or near the clinical Cmax and decreasing in half-log increments. If the clinical Cmax for an agent had not been determined, the highest concentration tested was 10 microM.
2.3 Cell Culture. All cells were maintained in an incubator at 37 degrees C and 5% CO2 with 95% humidity. The PDC lines were cultured according to standard operating procedures established by the NCI PDMR. All PDCs were thawed and cultured in Matrigel-coated flasks prepared with a working solution of 1X Ham's F-12 nutrient mix, without supplementation (Invitrogen, cat. 11765054), 100 U/mL penicillin-streptomycin (Invitrogen, cat. 15140122), and 2.5% Matrigel (Corning Inc., cat. 354248) for the first three passages. The 857933-349-R-J2-PDC line was cultured in 6C/Colon 1B media, which includes advanced DMEM/F-12 (Thermo Fisher Scientific, cat. 12634028), 10 mM HEPES (Thermo Fisher Scientific, cat. 15630080), 1X GlutaMAX supplement (Thermo Fisher Scientific, cat. 35050061), 0.1 mg/mL primocin (InvivoGen, cat. ant-pm-2), 10% defined fetal bovine serum, heat inactivated (HyClone Laboratories Inc., cat. SH30070.03HI), 50% L-WRN conditioned media (ATCC, cat. CRL-3276), 1.25 mM N-Acetyl-L-cysteine (Sigma-Aldrich, cat. A9165), 10 mM nicotinamide (Sigma-Aldrich, cat. N0636), 1X B-27 supplement (Thermo Fisher Scientific, cat. 17504044), 1X N-2 supplement (Thermo Fisher Scientific, cat. 17502048), 10 microM Y-27632 dihydrochloride (Tocris Bioscience, cat. 1254), and 50 ng/mL human EGF recombinant protein (Thermo Fisher Scientific, cat. PHG0311). The 485176-168-R4-J1-PDC line was cultured in Panc media, which includes all 6C/Colon 1B media components plus 100 ng/mL human FGF-10 (Thermo Fisher Scientific, cat. 100-26), 500 nM SB-431542 (Selleckchem, cat. S1067), and gastrin (Tocris, cat. 3006).
[…]

Setting [1] is: curve of first compound, second compound 0.0316 µM.
Where [2] appears, read: curve of first compound, second compound 0.1 µM.
[3] abbreviates: curve of first compound, second compound 0.316 µM.
Setting [4] is: curve of first compound, second compound 1 µM.
The mark [5] stands for this setting: curve of first compound, second compound 3.16 µM.
The mark [6] stands for this setting: curve of first compound, second compound 10 µM.
The mark [7] stands for this setting: second compound 0.0316 µM, first compound 0.0316 µM.
Setting [8] is: second compound 0.0316 µM, first compound 0.1 µM.
The mark [9] stands for this setting: second compound 0.0316 µM, first compound 0.316 µM.
Setting [10] is: second compound 0.0316 µM, first compound 1 µM.
Setting [11] is: second compound 0.0316 µM, first compound 3.16 µM.
Setting [12] is: second compound 0.0316 µM, first compound 10 µM.
The mark [13] stands for this setting: second compound 0.1 µM, first compound 0.0316 µM.
Where [14] appears, read: second compound 0.1 µM, first compound 0.1 µM.
The mark [15] stands for this setting: second compound 0.1 µM, first compound 0.316 µM.
[16] abbreviates: second compound 0.1 µM, first compound 1 µM.
[17] abbreviates: second compound 0.1 µM, first compound 3.16 µM.
[18] abbreviates: second compound 0.1 µM, first compound 10 µM.
[19] abbreviates: second compound 0.316 µM, first compound 0.0316 µM.
[20] abbreviates: second compound 0.316 µM, first compound 0.1 µM.
Setting [21] is: second compound 0.316 µM, first compound 0.316 µM.
The mark [22] stands for this setting: second compound 0.316 µM, first compound 1 µM.
Where [23] appears, read: second compound 0.316 µM, first compound 3.16 µM.
The mark [24] stands for this setting: second compound 0.316 µM, first compound 10 µM.
Where [25] appears, read: second compound 1 µM, first compound 0.0316 µM.
Setting [26] is: second compound 1 µM, first compound 0.1 µM.
Setting [27] is: second compound 1 µM, first compound 0.316 µM.
[28] abbreviates: second compound 1 µM, first compound 1 µM.
The mark [29] stands for this setting: second compound 1 µM, first compound 3.16 µM.
Setting [30] is: second compound 1 µM, first compound 10 µM.
The mark [31] stands for this setting: second compound 3.16 µM, first compound 0.0316 µM.
Setting [32] is: second compound 3.16 µM, first compound 0.1 µM.
The mark [33] stands for this setting: second compound 3.16 µM, first compound 0.316 µM.
[34] abbreviates: second compound 3.16 µM, first compound 1 µM.
Setting [35] is: second compound 3.16 µM, first compound 3.16 µM.
Where [36] appears, read: second compound 3.16 µM, first compound 10 µM.
The mark [37] stands for this setting: second compound 10 µM, first compound 0.0316 µM.
Where [38] appears, read: second compound 10 µM, first compound 0.1 µM.
Setting [39] is: second compound 10 µM, first compound 0.316 µM.
Setting [40] is: second compound 10 µM, first compound 1 µM.
Where [41] appears, read: second compound 10 µM, first compound 3.16 µM.
The mark [42] stands for this setting: second compound 10 µM, first compound 10 µM.

“And” between values parts separate entries of the source, which are not always exact repeats. Identical values can stand only once.
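Also: spheroids exposed to the agents for seven days.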
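For viability, T/C in this document: percent of DMSO vehicle control viability which is 100%.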

In the case of `COc1cc(C2c3cc4c(cc3C(OC3OC5COC(C)OC5C(O)C3O)C3COC(=O)C23)OCO4)cc(OC)c1O` (configuration not stated) + Cc1cnc(CNC(=O)c2c(=O)c3ccc(N4CCCN(C)CC4)nc3n3c2sc2ccccc23)cn1, the 50% inhibitory concentration (IC50) (in general, the concentration that gives 50% inhibition) under setting [1] came to 185 nM; the half-inhibitory concentration (IC50) under setting [2] amounted to 86.6 nM; the IC50 under setting [3] is less than 31.6 nM; the half-maximal inhibitory concentration (IC50) under setting [4] was less than 31.6 nM; the IC50 under setting [5] was less than 31.6 nM; the IC50 under setting [6] was less than 31.6 nM. Further, the viability, T/C (commonly the result in the treated group divided by that in the control group, in per cent) reads like this: under setting [7], 53.3%; under setting [8], 55.2%; under setting [9], 47.4%; under setting [10], 41.3%; under setting [11], 36.6%; under setting [12], 27.8%. Further, the viability, T/C is 54.4% under setting [13]; 45.2% under setting [14]; 50.1% under setting [15]; 40% under setting [16]; 31.8% under setting [17]; 29.4% under setting [18]. Moreover, the viability, T/C under setting [19] is 43.4%; the viability, T/C under setting [20] was 45.8%; the viability, T/C under setting [21] is 43.6%; the viability, T/C under setting [22] was 41.4%; the viability, T/C under setting [23] is 31.9%; the viability, T/C under setting [24] is 28.1%. Besides, the viability, T/C was 40.9% under setting [25]; 41% under setting [26]; 43.5% under setting [27]; 41% under setting [28]; 34.1% under setting [29]; 28.4% under setting [30]. The viability, T/C under setting [31] was 31.7%; the viability, T/C under setting [32] was 32.9%; the viability, T/C under setting [33] is 35.9%; the viability, T/C under setting [34] is 32.7%; the viability, T/C under setting [35] was 34.2%; the viability, T/C under setting [36] was 25.5%. The viability, T/C reads like this: under setting [37], 28.2%; under setting [38], 31.4%; under setting [39], 28.7%; under setting [40], 32.9%; under setting [41], 27.2%; under setting [42], 20.9%.

Take `Cn1ncnc1[C@H]1c2n[nH]c(=O)c3cc(F)cc(c23)N[C@@H]1c1ccc(F)cc1`: the viability, T/C runs as follows: (compound 0.000999 µM) 101% and 100% and 95.7%; (compound 0.00316 µM) 97.5% and 87.7% and 88.7%; (compound 0.00999 µM) 87.6% and 88.2% and 102%; (compound 0.0316 µM) 79% (2×) and 83.2%; (compound 0.0999 µM) 69.5% and 71% and 65.5%; (compound 0.316 µM) 56.5% and 57.2% and 61.5%. The half-maximal inhibitory concentration (IC50) (curve of compound) is more than 316 nM.

`CC(C)(O)C1CCC(Nc2ccc3ncc(-c4cccc(C(F)(F)F)c4)n3n2)CC1` (configuration not stated) + Cc1cnc(CNC(=O)c2c(=O)c3ccc(N4CCCN(C)CC4)nc3n3c2sc2ccccc23)cn1: the IC50 under setting [1] was 886 nM; the 50% inhibitory concentration (IC50) under setting [2] was less than 31.6 nM; the concentration for half-maximal inhibition (IC50) under setting [3] is less than 31.6 nM; the 50% inhibitory concentration (IC50) under setting [4] was less than 31.6 nM; the 50% inhibitory concentration (IC50) under setting [5] is less than 31.6 nM; the IC50 under setting [6] is less than 31.6 nM. Further, the viability, T/C is 64.2% under setting [7]; 66.3% under setting [8]; 64.7% under setting [9]; 48.2% under setting [10]; 22.2% under setting [11]; 32.5% under setting [12]. The viability, T/C is 52.1% under setting [13]; 52.7% under setting [14]; 44.5% under setting [15]; 39.9% under setting [16]; 19.4% under setting [17]; 26.1% under setting [18]. Further, the viability, T/C reads like this: under setting [19], 46.1%; under setting [20], 42.3%; under setting [21], 45.5%; under setting [22], 35.8%; under setting [23], 18.6%; under setting [24], 22.3%. Moreover, the viability, T/C by setting is: under setting [25], 43.8%; under setting [26], 43.5%; under setting [27], 42.6%; under setting [28], 34.6%; under setting [29], 16.5%; under setting [30], 19.8%. Besides, the viability, T/C under setting [31] was 38.3%; the viability, T/C under setting [32] was 40.4%; the viability, T/C under setting [33] is 39.7%; the viability, T/C under setting [34] is 28%; the viability, T/C under setting [35] is 0.11%; the viability, T/C under setting [36] was 7.92%. Besides, the viability, T/C by setting is: under setting [37], 30.7%; under setting [38], 33.9%; under setting [39], 30.4%; under setting [40], 15.6%; under setting [41], 0.2%; under setting [42], 0.19%.

As for `C=CC(=O)N1CCN(c2nc(=O)n(-c3c(C)ccnc3C(C)C)c3nc(-c4c(O)cccc4F)c(F)cc23)C(C)C1` (configuration not stated), the viability, T/C is, setting by setting: (compound 0.0316 µM) 98.6% and 102% and 105%; (compound 0.1 µM) 101% and 93.9% and 95.3%; (compound 0.316 µM) 109% and 115% and 99.2%; (compound 1 µM) 105% and 90.3% and 92%; (compound 3.16 µM) 111% and 93.5% and 105%; (compound 10 µM) 85% and 77% and 90.2%. The IC50 (curve of compound) is more than 10000 nM.

For `Cc1[nH]c2ccccc2c1CCNCc1ccc(/C=C/C(=O)NO)cc1`, the viability, T/C is, setting by setting: (compound 0.000999 µM) 101% and 103% and 102%; (compound 0.00316 µM) 85.1% and 98.6% and 81.7%; (compound 0.00999 µM) 77.8% and 64.2% and 81.9%; (compound 0.0316 µM) 61.1% and 69.2% and 57.3%; (compound 0.0999 µM) 43% and 39.6% and 43.9%; (compound 0.316 µM) 18.1% and 22.3% and 22.9%. The half-inhibitory concentration (IC50) (curve of compound) was 61.3 nM and 59.6 nM and 61.1 nM.

For `CC(C)n1c(=O)n(C)c2cnc3cc(F)c(-c4ccc(OCCCN5CCCCC5)nc4)cc3c21`, the viability, T/C is, setting by setting: (compound 0.0316 µM) 111% and 107% and 105%; (compound 0.1 µM) 102% and 105% and 94.4%; (compound 0.316 µM) 112% and 103% and 93.6%; (compound 1 µM) 95.5% and 97.2% and 101%; (compound 3.16 µM) 96.8% and 95.2% and 92.5%; (compound 10 µM) 69.9% and 73.6% and 72.5%. Besides, under “curve of compound”, the 50% inhibitory concentration (IC50) was more than 10000 nM.
